Results on 30 compounds are retold here after patent US10513523B2, “Imidazopyrazines and pyrazolopyrimidines and their use as AMPA receptor modulators” (Janssen Pharmaceutica NV, priority 2015, dated 2019).

The assay has as its target GluA1o-γ8 (GRIA1o-CACNG8 fusion construct; TARP γ8 dependent AMPA receptor) (Homo sapiens (Human), UniProt P42261+Q8WXS5). The assay can be described thus: Calcium flux assay (FLIPR), inhibition of glutamate response of GluA1o-γ8 channel. Type of assay: cell-based. The note with it: HEK293 cells stably expressing GRIA1o-CACNG8 fusion; 15 μM glutamate; pIC50 = negative log of IC50 in molar; read-out: GluR1-γ8 (pIC50) (converted). From the text: This assay was used to test compounds for their ability to inhibit TARP γ8 dependent AMPA receptor activity. The AMPA receptor is a non-selective cation channel activated by glutamate. Ionotropic glutamate receptors normally desensitize too rapidly to allow detectable calcium influx in a FLIPR assay (Strange et al. (2006). “Functional characterisation of homomeric ionotropic glutamate receptors GluR1-GluR6 in a fluorescence-based high throughput screening assay.” Comb Chem High Throughput Screen 9(2): 147-158). But, this desensitization is incomplete, and a substantial steady-state current remains in the sustained presence of glutamate (Cho et al. (2007). “Two families of TARP isoforms that have distinct effects on the kinetic properties of AMPA receptors and synaptic currents.” Neuron 55(6): 890-904).
An in vitro assay was used to determine the potency of test compounds as inhibitors of the glutamate response of the channel formed by GluA1o-γ8. To ensure a 1:1 stoichiometry of GluA10 and γ8 subunits in the expressed channel, a fusion of the cDNAs for GRIA1o and CACNG8 was used. Following Shi et al (2009) “The stoichiometry of AMPA receptors and TARPs varies by neuronal cell type.” Neuron 62(5): […]), the C-terminus of the cDNA for GRI1o was fused to the N-terminus of the cDNA for γ8. The linker sequence was […]. […] A clonal cell line in HEK293 cells stably expressing this construct, with a geneticin selection marker, was generated for use in this assay. Cell expressing the GRIA1o-CACNG8 fusion construct were grown in a monolayer in 96- or 384-well microtiter plates. They were washed with assay buffer (135 mM NaCl, 4 mM KCl, 3 mM CaCl2, 1 mM MgCl2, 5 mM glucose, 10 mM HEPES, pH 7.4, 300 mOs) using a Biotek EL405 plate washer. The cells were then loaded with a calcium-sensitive dye (Calcium-5 or Calcium-6, Molecular Devices) and the test compounds at a range of concentrations. Calcium flux following the addition of 15 μM glutamate was monitored using a Molecular Devices FLIPR Tetra.
The fluorescence in each well was normalized to the fluorescence of negative and positive control wells. […] The responses to glutamate as functions of the test compound concentrations were fitted to a four-parameter logistic function. The fitted parameter corresponding to the midpoint was taken to be the potency of inhibition of the compound.
On the technique in general: A change in cytosolic calcium serves as a functional read-out for many receptors and channels.

Sequence of GluA1o-γ8 (GRIA1o-CACNG8 fusion construct; TARP γ8 dependent AMPA receptor) (P42261 other isoform, or with tags, fused parts or gaps): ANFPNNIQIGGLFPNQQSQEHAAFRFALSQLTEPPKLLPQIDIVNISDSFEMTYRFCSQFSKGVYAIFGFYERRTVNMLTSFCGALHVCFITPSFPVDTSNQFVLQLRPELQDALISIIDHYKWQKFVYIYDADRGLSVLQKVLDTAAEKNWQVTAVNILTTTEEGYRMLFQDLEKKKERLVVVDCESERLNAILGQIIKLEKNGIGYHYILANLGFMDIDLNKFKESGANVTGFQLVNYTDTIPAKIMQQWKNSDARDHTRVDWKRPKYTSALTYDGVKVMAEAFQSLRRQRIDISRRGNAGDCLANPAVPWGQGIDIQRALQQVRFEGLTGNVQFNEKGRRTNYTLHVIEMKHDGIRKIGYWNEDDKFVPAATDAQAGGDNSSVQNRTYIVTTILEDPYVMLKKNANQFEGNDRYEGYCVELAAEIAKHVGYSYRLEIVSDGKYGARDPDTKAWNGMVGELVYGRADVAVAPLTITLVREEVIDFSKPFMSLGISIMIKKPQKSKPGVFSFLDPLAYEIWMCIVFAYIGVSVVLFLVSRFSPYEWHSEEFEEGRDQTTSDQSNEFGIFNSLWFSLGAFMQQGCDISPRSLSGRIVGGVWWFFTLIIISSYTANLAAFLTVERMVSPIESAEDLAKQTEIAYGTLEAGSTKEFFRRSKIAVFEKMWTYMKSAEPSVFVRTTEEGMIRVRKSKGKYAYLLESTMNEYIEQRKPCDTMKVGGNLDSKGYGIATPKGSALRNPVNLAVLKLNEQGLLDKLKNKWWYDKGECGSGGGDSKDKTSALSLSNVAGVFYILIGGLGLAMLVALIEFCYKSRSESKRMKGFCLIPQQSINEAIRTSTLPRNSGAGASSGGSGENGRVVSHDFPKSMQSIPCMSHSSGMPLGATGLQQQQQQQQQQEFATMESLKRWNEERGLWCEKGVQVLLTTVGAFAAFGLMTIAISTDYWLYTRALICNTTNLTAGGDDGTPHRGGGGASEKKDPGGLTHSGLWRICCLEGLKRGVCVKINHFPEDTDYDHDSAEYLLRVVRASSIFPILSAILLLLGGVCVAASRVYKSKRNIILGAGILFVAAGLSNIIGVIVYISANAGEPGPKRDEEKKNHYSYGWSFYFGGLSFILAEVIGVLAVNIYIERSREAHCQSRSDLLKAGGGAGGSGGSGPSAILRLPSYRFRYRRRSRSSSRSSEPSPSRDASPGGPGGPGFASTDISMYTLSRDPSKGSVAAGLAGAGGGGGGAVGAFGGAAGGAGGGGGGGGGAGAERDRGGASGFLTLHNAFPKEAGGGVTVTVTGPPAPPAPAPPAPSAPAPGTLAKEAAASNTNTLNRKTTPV

For the compound `CC(=O)N1CC=C(c2nccn3c(-c4ccc(O)cc4)c(-c4ccc(F)cc4)nc23)CC1` [Example 130, 1-[4-[2-(4-Fluorophenyl)-3-(4-hydroxyphenyl)imidazo[1,2-a]pyrazin-8-yl]-3,6-dihydro-2H-pyridin-1-yl]ethanone], the IC50 was 158 nM.

Take `O=C(NC1CCCCC1)c1nc2c(N3CCOCC3)nccn2c1-c1ccc2[nH]c(=O)[nH]c2c1` [Example 214, N-Cyclohexyl-8-morpholino-3-(2-oxo-1,3-dihydrobenzimidazol-5-yl)imidazo[1,2-a]pyrazine-2-carboxamide]: the IC50 was 31.6 nM.

Regarding `O=C1Cc2cc(-c3c(-c4ccccc4)nc4c(N5CCOCC5)nccn34)ccc2N1` [Example 65, 5-(8-Morpholino-2-phenyl-imidazo[1,2-a]pyrazin-3-yl)indolin-2-one], the IC50 was 0.158 nM.

Take `COC1CN(c2nccn3c(-c4ccc5c(c4)CC(=O)N5)c(-c4ccccc4)nc23)C1` [Example 78, 5-[8-(3-Methoxyazetidin-1-yl)-2-phenyl-imidazo[1,2-a]pyrazin-3-yl]indolin-2-one]: the IC50 is 2 nM.

Turning to `CC(C)(C)OC(=O)N1CCN(c2nccn3c(-c4ccc5c(c4)CC(=O)N5)c(Cc4ccccc4)nc23)CC1` [Example 36, tert-Butyl 4-[2-benzyl-3-(2-oxoindolin-5-yl)imidazo[1,2-a]pyrazin-8-yl]piperazine-1-carboxylate], the IC50 is 0.316 nM.

With `N#Cc1ccc(-c2nc3c(N4CCNC(=O)C4)nccn3c2-c2ccc3[nH]c(=O)[nH]c3c2)cc1` [Example 211, 4-[3-(2-Oxo-1,3-dihydrobenzimidazol-5-yl)-8-(3-oxopiperazin-1-yl)imidazo[1,2-a]pyrazin-2-yl]benzonitrile], the IC50 is 3.98 nM.

Take `O=c1[nH]c2ccc(-c3c(-c4ccccc4)nn4cnc(C(F)(F)F)cc34)cc2s1` [Example 224, 6-[2-phenyl-5-(trifluoromethyl)pyrazolo[1,5-c]pyrimidin-3-yl]-3H-1,3-benzothiazol-2-one]: the IC50 is 20 nM.

Turning to `COC1CCN(c2nccc3c(-c4ccc5[nH]ncc5c4)c(-c4ccccc4)nn23)CC1` [Example 234, 3-(1H-Indazol-5-yl)-7-(4-methoxy-1-piperidyl)-2-phenyl-pyrazolo[1,5-c]pyrimidine], the IC50 was 0.631 nM.

On to `O=C1Cc2cc(-c3c(-c4ccc(F)cc4)nc4c(N5CCC6(CC5)OCCO6)nccn34)ccc2N1` [Example 55, 5-[8-(1,4-Dioxa-8-azaspiro[4.5]decan-8-yl)-2-(4-fluorophenyl)imidazo[1,2-a]pyrazin-3-yl]indolin-2-one], for which the IC50 was 0.2 nM.

As for `O=C1CN(c2nccn3c(-c4ccc5c(c4)CC(=O)N5)c(Cc4ccccc4)nc23)CCN1` [Example 38, 5-[2-Benzyl-8-(3-oxopiperazin-1-yl)imidazo[1,2-a]pyrazin-3-yl]indolin-2-one], the IC50 is 1 nM.

Regarding `CC(=O)N[C@@H]1CCN(c2nccn3c(-c4ccc5[nH]c(=O)[nH]c5c4)c(-c4ccc(F)cc4)nc23)C1` [Example 100, N-[(3R)-1-[2-(4-Fluorophenyl)-3-(2-oxo-1,3-dihydrobenzimidazol-5-yl)imidazo[1,2-a]pyrazin-8-yl]pyrrolidin-3-yl]acetamide], the IC50 was 12.6 nM.

Turning to `O=C1Cc2cc(-c3c(C(=O)c4ccccc4)nc4c(N5CCC(O)CC5)nccn34)ccc2N1` [Example 154, 5-[2-Benzoyl-8-(4-hydroxy-1-piperidyl)imidazo[1,2-a]pyrazin-3-yl]indolin-2-one], the IC50 is 1.58 nM.

On to `O=C1Cc2cc(-c3c(-c4ccc(F)cc4)nc4c(N5CCO[C@H](C(F)(F)F)C5)nccn34)ccc2N1` (single isomer, unassigned) [Example 49, (S*)-5-[2-(4-Fluorophenyl)-8-[2-(trifluoromethyl)morpholin-4-yl]imidazo[1,2-a]pyrazin-3-yl]indolin-2-one], for which the IC50 was 7.94 nM.

As for `N#Cc1ccc(-c2nc3c(N4CCNC(=O)C4)nccn3c2-c2ccc3c(c2)CC(=O)N3)cc1` [Example 210, 4-[3-(2-Oxoindolin-5-yl)-8-(3-oxopiperazin-1-yl)imidazo[1,2-a]pyrazin-2-yl]benzonitrile], the IC50 is 20 nM.

As to `CCN(CC)c1nccn2c(-c3ccc4c(c3)CC(=O)N4)c(-c3ccc(F)cc3)nc12` [Example 51, 5-[8-(Diethylamino)-2-(4-fluorophenyl)imidazo[1,2-a]pyrazin-3-yl]indolin-2-one], the IC50 was 3.98 nM.

Turning to `O=S1(=O)Cc2cc(-c3c(-c4ccc(F)cc4)nn4c(N5CCOCC5)nccc34)ccc2N1` [Example 178, 5-[2-(4-Fluorophenyl)-7-morpholino-pyrazolo[1,5-c]pyrimidin-3-yl]-1,3-dihydro-2,1-benzothiazole 2,2-dioxide], the IC50 was 2 nM.

Consider `O=C1Cc2cc(-c3c(-c4ccc(F)cc4)nn4c(N5CC(F)(F)C5)nccc34)ccc2N1` [Example 176, 5-[7-(3,3-Difluoroazetidin-1-yl)-2-(4-fluorophenyl)pyrazolo[1,5-c]pyrimidin-3-yl]indolin-2-one], for which the IC50 is 3.16 nM.

With `O=C1Cc2cc(-c3c(-c4ccccc4)nn4c(N5CCC(O)CC5)nccc34)ccc2N1` [Example 187, 5-[7-(4-Hydroxy-1-piperidyl)-2-phenyl-pyrazolo[1,5-c]pyrimidin-3-yl]indolin-2-one], the IC50 was 0.158 nM.

Take `O=c1[nH]c2ccc(-c3c(-c4ccc(F)cc4)nn4c(N5CCOCC5)nccc34)cc2o1` [Example 173, 6-[2-(4-Fluorophenyl)-7-morpholino-pyrazolo[1,5-c]pyrimidin-3-yl]-3H-1,3-benzoxazol-2-one]: the IC50 is 1.26 nM.

Turning to `CC(=O)N1CCN(c2nccn3c(-c4ccc(O)cc4)c(Cc4ccccc4)nc23)CC1` [Example 23, 1-[4-[2-Benzyl-3-(4-hydroxyphenyl)imidazo[1,2-a]pyrazin-8-yl]piperazin-1-yl]ethanone], the IC50 is 25.1 nM.

On to `CC1(O)CCN(c2nccn3c(-c4ccc5c(c4)CC(=O)N5)c(-c4ccc(F)cc4)nc23)CC1` [Example 68, 5-[2-(4-Fluorophenyl)-8-(4-hydroxy-4-methyl-1-piperidyl)imidazo[1,2-a]pyrazin-3-yl]indolin-2-one], for which the IC50 was 0.1 nM.

Regarding `CC(=O)N1CCN(c2nccc3c(-c4ccc5c(c4)CC(=O)N5)c(-c4ccc(F)cc4)nn23)CC1` [Example 172, 5-[7-(4-Acetylpiperazin-1-yl)-2-(4-fluorophenyl)pyrazolo[1,5-c]pyrimidin-3-yl]indolin-2-one], the IC50 was 0.158 nM.

For `O=C1Cc2cc(-c3c(-c4ccc(F)cc4)nc4cnccn34)ccc2N1` [Example 135, 5-(2-(4-Fluorophenyl)imidazo[1,2-a]pyrazin-3-yl)indolin-2-one], the IC50 is 100 nM.

As to `O=C1Cc2cc(-c3c(C4CC4)nc4c(N5CCOCC5)nccn34)ccc2N1` [Example 91, 5-(2-Cyclopropyl-8-morpholino-imidazo[1,2-a]pyrazin-3-yl)indolin-2-one], the IC50 was 501 nM.

Regarding `O=c1[nH]c2ccc(-c3c(-c4ccc(F)cc4)nc4c(N5CCOCC5)nccn34)cc2o1` [Example 116, 6-(2-(4-Fluorophenyl)-8-morpholinoimidazo[1,2-a]pyrazin-3-yl)benzo[d]oxazol-2(3H)-one], the IC50 is 3.16 nM.

In the case of `O=c1[nH]c2ccc(-c3c(-c4ccccc4)nc4cnc(C(F)(F)F)cn34)cc2s1` [Example 245, 6-[2-Phenyl-6-(trifluoromethyl)imidazo[1,2-a]pyrazin-3-yl]-3H-1,3-benzothiazol-2-one], the IC50 was 12.6 nM.

Take `Oc1ccc(-c2c(-c3ccc(F)cc3)nc3c(N4CCNCC4)nccn23)cc1` [Example 5, 4-[2-(4-Fluorophenyl)-8-piperazin-1-yl-imidazo[1,2-a]pyrazin-3-yl]phenol]: the IC50 is 1260 nM.

For the compound `CN(C)c1nccn2c(-c3ccc4c(c3)CC(=O)N4)c(-c3ccc(F)cc3)nc12` [Example 141, 5-[8-(Dimethylamino)-2-(4-fluorophenyl)imidazo[1,2-a]pyrazin-3-yl]indolin-2-one], the IC50 is 0.794 nM.

Take `O=C1CN(c2nccn3c(-c4ccc5[nH]ncc5c4)c(-c4ccc(F)cc4)nc23)CCN1` [Example 33, 4-[2-(4-Fluorophenyl)-3-(1H-indazol-5-yl)imidazo[1,2-a]pyrazin-8-yl]piperazin-2-one]: the IC50 is 0.2 nM.

With `c1ccc(Cc2nc3c(N4CCOCC4)nccn3c2-c2ccc3[nH]ncc3c2)cc1` [Example 21, 4-[2-Benzyl-3-(1H-indazol-5-yl)imidazo[1,2-a]pyrazin-8-yl]morpholine], the IC50 was 1 nM.
